# Measurements: ChEMBL document CHEMBL2331139, “Discovery of BAF312 (Siponimod), a Potent and Selective S1P Receptor Modulator” (ACS Med Chem Lett, 2013)
# Active and inactive are the calls of the source. The rule behind the calls is not given here.
# Experiments:
# [1] = molecular target: T1, Sphingosine 1-phosphate receptor 3 (Homo sapiens, UniProt Q99500); experiment: Agonist activity at human S1P3 receptor transfected in CHO cells at 10 uM incubated for 10 to 15 mins prior to GTPgamma35S addition measured after 120 mins by GTPgamma35S binding assay relative to S1P; format: functional, cell-based
# T1 sequence (Q99500 whole entry): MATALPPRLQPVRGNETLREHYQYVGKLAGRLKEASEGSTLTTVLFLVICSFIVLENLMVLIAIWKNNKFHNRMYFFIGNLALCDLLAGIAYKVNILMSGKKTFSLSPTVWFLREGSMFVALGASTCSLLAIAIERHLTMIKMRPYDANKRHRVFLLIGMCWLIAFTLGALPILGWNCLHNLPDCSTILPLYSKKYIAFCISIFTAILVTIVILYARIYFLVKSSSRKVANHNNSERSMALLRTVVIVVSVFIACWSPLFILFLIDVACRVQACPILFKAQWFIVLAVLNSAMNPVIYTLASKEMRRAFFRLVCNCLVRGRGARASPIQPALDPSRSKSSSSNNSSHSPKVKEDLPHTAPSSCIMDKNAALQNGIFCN
# [2] = molecular target: T2, Sphingosine 1-phosphate receptor 1 (Homo sapiens, UniProt P21453); experiment: Agonist activity at human S1P1 receptor transfected in CHO cells at 10 uM incubated for 10 to 15 mins prior to GTPgamma35S addition measured after 120 mins by GTPgamma35S binding assay relative to S1P; format: functional, cell-based
# T2 sequence (P21453 whole entry): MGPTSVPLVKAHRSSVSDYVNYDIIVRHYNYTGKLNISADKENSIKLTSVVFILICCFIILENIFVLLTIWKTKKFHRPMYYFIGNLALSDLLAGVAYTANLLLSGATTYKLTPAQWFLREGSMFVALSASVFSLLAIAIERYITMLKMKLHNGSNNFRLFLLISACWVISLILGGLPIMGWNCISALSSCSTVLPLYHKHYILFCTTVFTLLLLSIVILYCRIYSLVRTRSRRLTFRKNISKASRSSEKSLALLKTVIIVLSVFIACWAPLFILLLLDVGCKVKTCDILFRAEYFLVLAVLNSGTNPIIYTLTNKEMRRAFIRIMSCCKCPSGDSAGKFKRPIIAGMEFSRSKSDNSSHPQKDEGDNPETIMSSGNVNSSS
# [3] = molecular target: T2, Sphingosine 1-phosphate receptor 1; experiment: Agonist activity at human S1P1 receptor transfected in CHO cells incubated for 10 to 15 mins prior to GTPgamma35S addition measured after 120 mins by GTPgamma35S binding assay; format: functional, cell-based
# [4] = molecular target: T1, Sphingosine 1-phosphate receptor 3; experiment: Agonist activity at human S1P3 receptor transfected in CHO cells incubated for 10 to 15 mins prior to GTPgamma35S addition measured after 120 mins by GTPgamma35S binding assay; format: functional, cell-based
# [5] = Terminal half life in monkey; format: ADME, organism-based, Macaca mulatta; conditions: rhesus monkey, in vivo; read-out: beta t1/2 (converted)
# [6] = Plasma protein binding in monkey; format: ADME, cell-free, Macaca mulatta; conditions: rhesus monkey, read-out: PPB
# Rattus norvegicus [7] = experiment: Reduction in peripheral lymphocyte count in po dosed Lewis rat after 6 hrs; format: functional
# [8] = Volume of distribution at steady state in monkey; format: ADME, organism-based, Macaca mulatta; conditions: rhesus monkey, in vivo; read-out: Vdss
# [9] = Plasma protein binding in dog; format: ADME, cell-free, Canis lupus familiaris; conditions: read-out: PPB
# Rattus norvegicus [10] = experiment: Reduction in peripheral lymphocyte count in Lewis rat at 1 mg/kg, po after 48 hrs; format: functional, organism-based; set-up: dose 1 mg/kg
# [11] = Plasma protein binding in rat; format: ADME, cell-free; conditions: read-out: PPB
# [12] = Oral bioavailability in monkey; format: ADME, organism-based, Macaca mulatta; conditions: rhesus monkey, in vivo
# [13] = Tmax in Lewis rat at 1 mg/kg, po after 8 hrs; format: ADME, organism-based; set-up: dose 1 mg/kg, route oral; conditions: in vivo
# [14] = Terminal half life in rat; format: ADME, organism-based; conditions: in vivo, read-out: beta t1/2 (converted)
# [15] = Plasma protein binding in human; format: ADME, cell-free; conditions: read-out: PPB
# [16] = Clearance in rat; format: ADME, organism-based; conditions: in vivo
# hERG (KCNH2) = hERG (KCNH2) (Homo sapiens, UniProt Q12809); experiment: Inhibition of human ERG channel at 25 uM
# hERG (KCNH2), sequence (Q12809 whole entry): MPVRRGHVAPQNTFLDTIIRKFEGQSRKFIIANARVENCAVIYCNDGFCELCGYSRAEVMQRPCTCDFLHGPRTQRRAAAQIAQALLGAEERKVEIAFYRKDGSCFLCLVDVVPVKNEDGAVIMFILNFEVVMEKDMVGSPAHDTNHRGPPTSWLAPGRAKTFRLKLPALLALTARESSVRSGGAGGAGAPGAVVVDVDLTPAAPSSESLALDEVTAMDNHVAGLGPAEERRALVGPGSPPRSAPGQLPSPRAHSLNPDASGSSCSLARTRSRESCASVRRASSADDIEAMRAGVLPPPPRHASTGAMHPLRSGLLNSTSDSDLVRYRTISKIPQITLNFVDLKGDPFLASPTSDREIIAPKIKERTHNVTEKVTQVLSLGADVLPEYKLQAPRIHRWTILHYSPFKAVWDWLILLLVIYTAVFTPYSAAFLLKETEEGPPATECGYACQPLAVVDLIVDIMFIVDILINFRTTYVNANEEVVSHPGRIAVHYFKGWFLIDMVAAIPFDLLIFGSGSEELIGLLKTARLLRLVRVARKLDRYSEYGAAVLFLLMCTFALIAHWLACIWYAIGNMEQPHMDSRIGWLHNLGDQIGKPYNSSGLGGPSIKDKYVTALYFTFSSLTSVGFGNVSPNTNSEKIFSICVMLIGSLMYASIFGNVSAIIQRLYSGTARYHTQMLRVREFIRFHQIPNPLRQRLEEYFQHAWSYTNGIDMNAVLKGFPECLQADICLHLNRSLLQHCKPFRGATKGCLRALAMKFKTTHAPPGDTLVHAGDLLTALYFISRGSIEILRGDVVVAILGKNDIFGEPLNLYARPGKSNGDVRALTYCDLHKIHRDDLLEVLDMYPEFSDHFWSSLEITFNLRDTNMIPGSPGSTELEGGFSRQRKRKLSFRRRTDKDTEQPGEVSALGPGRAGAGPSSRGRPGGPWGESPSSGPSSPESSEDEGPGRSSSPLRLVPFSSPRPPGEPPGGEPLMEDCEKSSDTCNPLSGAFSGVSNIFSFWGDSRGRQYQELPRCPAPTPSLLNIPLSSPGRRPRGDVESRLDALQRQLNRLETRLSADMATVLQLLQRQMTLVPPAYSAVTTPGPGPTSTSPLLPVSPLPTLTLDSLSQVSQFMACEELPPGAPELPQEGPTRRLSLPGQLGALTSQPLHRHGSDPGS
# [17] = Oral bioavailability in rat; format: ADME, organism-based; conditions: in vivo
# [18] = Volume of distribution at steady state in rat; format: ADME, organism-based; conditions: in vivo, read-out: Vdss
# [19] = Clearance in monkey; format: ADME, organism-based, Macaca mulatta; conditions: rhesus monkey, in vivo
# Caco-2 = experiment: Permeability across human Caco2 cells at 0.5 to 50 uM; format: ADME, cell-based; conditions: caco-2, 50 µM
# Rattus norvegicus [20] = experiment: Reduction in peripheral lymphocyte count in Lewis rat at 1 mg/kg, po after 8 hrs; format: functional; set-up: scale not given: the % may be the effect or the level left
# [21] = Drug absorption in rat; format: ADME, organism-based; conditions: in vivo, read-out: Fabs
# Rattus norvegicus [22] = species: Rattus norvegicus; experiment: Drug excretion in rat; format: ADME, organism-based; conditions: in vivo
# [23] = Elimination half life in po dosed mouse; format: ADME, organism-based; conditions: in vivo, read-out: beta t1/2
# Mus musculus = experiment: Volume of distribution at steady state in po dosed mouse; format: ADME, organism-based; conditions: in vivo
Compound,Emax [1],Emax [2],EC50 [3],EC50 [4],further results
C/C(=N\OCc1ccc(C2CCCCC2)c(C(F)(F)F)c1)c1ccc(CNCCC(=O)O)c(F)c1,61%,105%,0.3 nM,2200 nM,–
C/C(=N\OCc1ccc(-c2ccc(F)c(F)c2)c(C(F)(F)F)c1)c1ccc(CNCCC(=O)O)cc1,–,–,16 nM,–,–
CCc1cc(/C(C)=N/OCc2ccc(C3CCCCC3)c(C(F)(F)F)c2)ccc1CN1CC(C(=O)O)C1 [SIPONIMOD],55%,91%,–,5000 nM,half-life [5]: 19 h; fraction unbound [6]: < 0.001; ED50 (Rattus norvegicus [7]): 0.14 mg/kg; Vd [8]: 2.12 L/kg; fraction unbound [9]: < 0.001; Activity (Rattus norvegicus [10]): inactive; fraction unbound [11]: < 0.001; bioavailability [12]: 71%; Tmax [13]: 8 h; half-life [14]: 6 h; fraction unbound [15]: < 0.001; clearance [16]: 6 mL/min/kg; inhibition at 25 µM (hERG (KCNH2)): < 10%; bioavailability [17]: 50%; Vd [18]: 2.15 L/kg; clearance [19]: 1.63 mL/min/kg; permeability (Caco-2): permeable; Activity (Rattus norvegicus [20]): 88%; Fa [21]: 58%; Drug excretion (Rattus norvegicus [22]): Not Active
C/C(=N\OCc1ccc(-c2ccccc2)cc1C(F)(F)F)c1ccc(CNCCC(=O)O)cc1,–,inactive,10000 nM,–,–
C/C(=N\OCc1ccc(-c2ccccc2)c(F)c1)c1ccc(CNCCC(=O)O)cc1,–,–,61 nM,–,–
C/C(=N\OCc1ccc(-c2ccccc2)cc1F)c1ccc(CNCCC(=O)O)cc1,–,–,120 nM,–,–
C/C(=N\OCc1ccc(-c2cccs2)c(C(F)(F)F)c1)c1ccc(CNCCC(=O)O)cc1,–,–,18 nM,5900 nM,–
C/C(=N\OCc1ccc(-c2ccc(C)cc2)c(C(F)(F)F)c1)c1ccc(CNCCC(=O)O)cc1,–,–,94 nM,–,–
C/C(=N\OCc1ccc(-c2ccc(F)cc2)cc1)c1ccc(CNCCC(=O)O)cc1,–,–,210 nM,–,–
C/C(=N\OCc1ccc(C2CCCCC2)c(C(F)(F)F)c1)c1ccc(CN2CC(C(=O)O)C2)c(C)c1,127%,80%,1.6 nM,3200 nM,–
C/C(=N\OCc1ccc(C2CCCCC2)c(C(F)(F)F)c1)c1ccc(CNCCC(=O)O)cn1,53%,92%,1.4 nM,2600 nM,–
C/C(=N\OCc1ccc(-c2ccccc2)cc1)c1ccc(CNCCC(=O)O)cc1,–,–,300 nM,–,–
C/C(=N\OCc1ccc(C2CCCCC2)c(C(F)(F)F)c1)c1ccc(CNCCC(=O)O)c(Br)c1,65%,85%,0.4 nM,1100 nM,–
CCc1cc(/C(C)=N/OCc2ccc(C3CCCCC3)c(C(F)(F)F)c2)ccc1CNCCC(=O)O,43%,92%,0.7 nM,7200 nM,–
C/C(=N\OCc1ccc(C2CCCCC2)c(C(F)(F)F)c1)c1ccc(CNCCC(=O)O)c(C2CC2)c1,63%,98%,0.4 nM,1300 nM,–
C/C(=N\OCc1ccc(-c2ccccc2F)c(C(F)(F)F)c1)c1ccc(CNCCC(=O)O)cc1,–,–,8 nM,–,–
C/C(=N\OCc1ccc(-c2ccccc2)cc1)c1ccc(CCC(N)(CO)CO)cc1,–,–,–,–,half-life [23]: > 30 h; Vdss (Mus musculus): 36.9 L/kg
C/C(=N\OCc1ccc(C2CCCCC2)c(C(F)(F)F)c1)c1ccc(CNCCC(=O)O)s1,79%,104%,2.2 nM,4000 nM,–
C/C(=N\OCc1ccc(-c2ccc(F)cc2)c(C(F)(F)F)c1)c1ccc(CNCCC(=O)O)cc1,–,–,11 nM,–,–
C/C(=N\OCc1ccc(C2CCCC2)c(C(F)(F)F)c1)c1ccc(CNCCC(=O)O)cc1,–,–,0.6 nM,1600 nM,–

# Further lines, with some results ahead:
Emax [1],Emax [2],EC50 [3],EC50 [4],Compound,further results
159%,94%,2 nM,5900 nM,C/C(=N\OCc1ccc(C2CCCCC2)c(C(F)(F)F)c1)c1ccc(CNCCC(=O)O)c(C)c1,–
62%,100%,17 nM,2500 nM,C/C(=N\OCc1ccc(C2CCCCC2)c(C(F)(F)F)c1)c1ccc(CNCCC(=O)O)o1,–
–,–,15 nM,3000 nM,C/C(=N\OCc1ccc(-c2ccco2)c(C(F)(F)F)c1)c1ccc(CNCCC(=O)O)cc1,–
50%,106%,0.6 nM,1900 nM,C/C(=N\OCc1ccc(C2CCCCC2)c(C(F)(F)F)c1)c1ccc(CNCCC(=O)O)c(Cl)c1,–
–,–,9 nM,–,C/C(=N\OCc1ccc(-c2ccccc2)c(C(F)(F)F)c1)c1ccc(CNCCC(=O)O)cc1,–
–,–,1400 nM,–,COc1ccccc1-c1ccc(CO/N=C(\C)c2ccc(CNCCC(=O)O)cc2)cc1,–
–,–,1500 nM,–,COc1ccc(-c2ccc(CO/N=C(\C)c3ccc(CNCCC(=O)O)cc3)cc2)cc1,–
–,–,1700 nM,–,C/C(=N\OCc1ccc(-c2ccccc2C(F)(F)F)cc1)c1ccc(CNCCC(=O)O)cc1,–
–,–,0.3 nM,1500 nM,C/C(=N\OCc1ccc(C2CCCCC2)c(C(F)(F)F)c1)c1ccc(CNCCC(=O)O)cc1,–
44%,86%,2.6 nM,4300 nM,C/C(=N\OCc1ccc(C2CCCCC2)c(C(F)(F)F)c1)c1ccc(CNCCC(=O)O)nc1,–
–,–,640 nM,–,C/C(=N\OCc1ccc(-c2ccc(C)cc2)cc1)c1ccc(CNCCC(=O)O)cc1,–
–,–,10000 nM,–,C/C(=N\OCc1ccc(-c2ccc(C(F)(F)F)cc2)cc1)c1ccc(CNCCC(=O)O)cc1,–
